Experimental findings from patent publication US20240239752A1, “BICYCLIC HETEROAROMATIC INHIBITORS OF KLK5” (BioCryst Pharmaceuticals, Inc., priority 2021, published 2024) are described below.

Structures are written as SMILES.

The experiment deals with T1, recombinant human KLK5 (Homo sapiens, UniProt Q9Y337).
T1 construct: purchased Novoprotein or R&D Systems C415 or 1108-SE
T1 sequence (Q9Y337 23-293): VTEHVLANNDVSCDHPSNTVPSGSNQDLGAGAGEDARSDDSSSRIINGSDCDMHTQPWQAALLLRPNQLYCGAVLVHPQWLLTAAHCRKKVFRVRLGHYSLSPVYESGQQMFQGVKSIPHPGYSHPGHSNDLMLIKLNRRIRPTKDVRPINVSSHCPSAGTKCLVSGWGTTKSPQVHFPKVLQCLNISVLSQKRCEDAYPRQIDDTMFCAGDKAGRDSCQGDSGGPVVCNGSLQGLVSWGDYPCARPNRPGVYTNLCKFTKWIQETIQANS
Description: Kallikrein (KLK) 5 enzymatic assay (Boc-VPR-AMC fluorogenic substrate). It counts as biochemical. Particulars: recombinant human KLK5 0.1 μg/well, Boc-VPR-AMC 100 μM, pH 7.5, room temperature, 1% DMSO; tested a minimum of three times. The procedure, abridged: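 Fluorogenic rate assay at pH 7.5 (0.1 M NaH2PO4, 1% DMSO, room temperature), run at least three times per compound. Compound was premixed with 0.1 μg/well recombinant human KLK5 before adding 100 μM Boc-VPR-AMC; AMC release was read at ex 380/em 460 nm, and IC50 derived from inhibition of rate vs DMSO control.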
The IC50 is the concentration that inhibits the measured activity by half. In the case of `Cn1nc(COc2ccccc2CC(=O)O)c2cc(-c3ccc4ccnc(N)c4c3)cnc21` [Compound 196e, 2-(2-((5-(1-aminoisoquinolin-7-yl)-1-methyl-1H-pyrazolo[3,4-b]pyridin-3-yl)methoxy)phenyl)acetic acid], the IC50 is under 1000 nM.

For `Nc1nccc2ccc(-c3cnc4c(c3)c(COc3ccccc3CC(=O)O)nn4C3CCC3)cc12` [Compound 197j, 2-(2-((5-(1-aminoisoquinolin-7-yl)-1-cyclobutyl-1H-pyrazolo[3,4-b]pyridin-3-yl)methoxy)phenyl)acetic acid], the half-inhibitory concentration (IC50) was under 1000 nM. Consider `Nc1nccc2c(-c3cnc4c(c3)c(COc3ccccc3CC(=O)O)nn4C3CCC3)cccc12` [Compound 198b, 2-(2-((5-(1-aminoisoquinolin-5-yl)-1-cyclobutyl-1H-pyrazolo[3,4-b]pyridin-3-yl)methoxy)phenyl)acetic acid], for which the IC50 is under 1000 nM. As for `Nc1nccc2ccc(-c3ccc4c(c3)C(Oc3ccccc3CC(=O)O)CC4)cc12` (stereo not drawn) [Compound 199d, 2-(2-((6-(1-aminoisoquinolin-7-yl)-2,3-dihydro-1H-inden-1-yl)oxy)phenyl)acetic acid], the figure is under 1000 nM. The same measure for `Nc1nccc2c(-c3ccc4c(c3)C(Oc3ccccc3CC(=O)O)CC4)cccc12` (stereo not drawn) [Compound 200b, 2-(2-((6-(1-aminoisoquinolin-5-yl)-2,3-dihydro-1H-inden-1-yl)oxy)phenyl)acetic acid]: under 1000 nM; for `Nc1nccc2ccc(-c3ccc4c(c3)c(COc3ccccc3CC(=O)O)nn4-c3ccccc3)cc12` [Compound 201c, 2-(2-((5-(1-aminoisoquinolin-7-yl)-1-phenyl-1H-indazol-3-yl)methoxy)phenyl)acetic acid]: under 1000 nM. For `Nc1nccc2c(-c3ccc4c(c3)c(COc3ccccc3CC(=O)O)nn4-c3ccccc3)cccc12` [Compound 202b, 2-(2-((5-(1-aminoisoquinolin-5-yl)-1-phenyl-1H-indazol-3-yl)methoxy)phenyl)acetic acid], the IC50 is under 1000 nM. The same measure for `N=C(N)c1cccc(-c2ccc3c(c2)c(COc2ccccc2CC(=O)O)nn3-c2ccccc2)c1` [Compound 203c, 2-(2-((5-(3-carbamimidoylphenyl)-1-phenyl-1H-indazol-3-yl)methoxy)phenyl)acetic acid]: under 1000 nM; for `Nc1nccc2ccc(-c3ccc4c(c3)C(Oc3ccccc3CC(=O)O)CCC4)cc12` (stereo not drawn) [Compound 204d, 2-(2-((7-(1-aminoisoquinolin-7-yl)-1,2,3,4-tetrahydronaphthalen-1-yl)oxy)phenyl)acetic acid]: 1000 to 10000 nM.

In the case of `Cc1cc(-c2ccc3ccnc(N)c3c2)cc2c1CCC2Oc1ccccc1CC(=O)O` (stereo not drawn) [Compound 205e, 2-(2-((6-(1-aminoisoquinolin-7-yl)-4-methyl-2,3-dihydro-1H-inden-1-yl)oxy)phenyl)acetic acid], the IC50 lay in the range of 1000 to 10000 nM.

Turning to `Cc1cc(-c2cccc3c(N)nccc23)cc2c1CCC2Oc1ccccc1CC(=O)O` (stereo not drawn) [Compound 206b, 2-(2-((6-(1-aminoisoquinolin-5-yl)-4-methyl-2,3-dihydro-1H-inden-1-yl)oxy)phenyl)acetic acid], the IC50 is under 1000 nM.

In the case of `Nc1nccc2ccc(-c3cc(F)c4c(c3)C(Oc3ccccc3CC(=O)O)CC4)cc12` (stereo not drawn) [Compound 207e, 2-(2-((6-(1-aminoisoquinolin-7-yl)-4-fluoro-2,3-dihydro-1H-inden-1-yl)oxy)phenyl)acetic acid], the IC50 is under 1000 nM. As for `Nc1nccc2c(-c3cc(F)c4c(c3)C(Oc3ccccc3CC(=O)O)CC4)cccc12` (stereo not drawn) [Compound 208b, 2-(2-((6-(1-aminoisoquinolin-5-yl)-4-fluoro-2,3-dihydro-1H-inden-1-yl)oxy)phenyl)acetic acid], the figure is under 1000 nM; as for `Nc1nccc2ccc(-c3ccc4c(c3)C(Oc3ccccc3CC(=O)O)c3ccccc3-4)cc12` (stereo not drawn) [Compound 209e, 2-(2-((2-(1-aminoisoquinolin-7-yl)-9H-fluoren-9-yl)oxy)phenyl)acetic acid], under 1000 nM. As to `Nc1nccc2c(-c3ccc4c(c3)C(Oc3ccccc3CC(=O)O)c3ccccc3-4)cccc12` (stereo not drawn) [Compound 210b, 2-(2-((2-(1-aminoisoquinolin-5-yl)-9H-fluoren-9-yl)oxy)phenyl)acetic acid], the IC50 is under 1000 nM. The same measure for `COc1ccc(-c2ccc3c(c2)c(COc2ccccc2CC(=O)O)nn3C(C)C)cc1C(=N)N` [Compound 211e, 2-(2-((5-(3-carbamimidoyl-4-methoxyphenyl)-1-isopropyl-1H-indazol-3-yl)methoxy)phenyl)acetic acid]: 1000 to 10000 nM.

As for `CC(C)n1nc(COc2ccccc2CC(=O)O)c2cc(-c3cccc4c3OCC4N)ccc21` (stereo not drawn) [Compound 212c, 2-(2-((5-(3-amino-2,3-dihydrobenzofuran-7-yl)-1-isopropyl-1H-indazol-3-yl)methoxy)phenyl)acetic acid], the IC50 is 1000 to 10000 nM.

As for `CC(C)n1nc(COc2ccccc2CC(=O)O)c2cc(-c3cccc4c3OCCC4N)ccc21` (stereo not drawn) [Compound 213c, 2-(2-((5-(4-aminochroman-8-yl)-1-isopropyl-1H-indazol-3-yl)methoxy)phenyl)acetic acid], the half-maximal inhibitory concentration (IC50) was over 10000 nM. `CC(C)n1nc(COc2ccccc2CC(=O)O)c2cc(-c3ccc4c(c3)C(N)CCO4)ccc21` (stereo not drawn) [Compound 214c, 2-(2-((5-(4-aminochroman-6-yl)-1-isopropyl-1H-indazol-3-yl)methoxy)phenyl)acetic acid]: the half-inhibitory concentration (IC50) is over 10000 nM. For `Nc1nccc2ccc(-c3ccc4c(c3)[C@H](Oc3ccccc3CC(=O)O)CC4)cc12` [Compound 215d, (R)-2-(2-((6-(1-aminoisoquinolin-7-yl)-2,3-dihydro-1H-inden-1-yl)oxy)phenyl)acetic acid], the IC50 is under 1000 nM. The same measure for `Nc1nccc2c(-c3ccc4c(c3)[C@H](Oc3ccccc3CC(=O)O)CC4)cccc12` [Compound 216b, (R)-2-(2-((6-(1-aminoisoquinolin-5-yl)-2,3-dihydro-1H-inden-1-yl)oxy)phenyl)acetic acid]: under 1000 nM. As for `Cn1c(=O)n(Cc2ccccc2CC(=O)O)c2cc(-c3ccc4ccnc(N)c4c3)ccc21` [Compound 217e, 2-(2-((6-(1-aminoisoquinolin-7-yl)-3-methyl-2-oxo-2,3-dihydro-1H-benzo[d]imidazol-1-yl)methyl)phenyl)acetic acid], the figure is over 10000 nM; as for `Cn1c(=O)n(Cc2ccccc2CC(=O)O)c2cc(-c3cccc4c(N)nccc34)ccc21` [Compound 218b, 2-(2-((6-(1-aminoisoquinolin-5-yl)-3-methyl-2-oxo-2,3-dihydro-1H-benzo[d]imidazol-1-yl)methyl)phenyl)acetic acid], 1000 to 10000 nM; as for `Cn1c(=O)n(Cc2ccccc2CC(=O)O)c2cc(-c3cccc(C(=N)N)c3)ccc21` [Compound 219c, 2-(2-((6-(3-carbamimidoylphenyl)-3-methyl-2-oxo-2,3-dihydro-1H-benzo[d]imidazol-1-yl)methyl)phenyl)acetic acid], 1000 to 10000 nM. The same measure for `Cn1c(=O)n(Cc2ccccc2CC(=O)O)c2cc(-c3cccc(C(N)=O)c3)ccc21` [Compound 219d, 2-(2-((6-(3-carbamoylphenyl)-3-methyl-2-oxo-2,3-dihydro-1H-benzo[d]imidazol-1-yl)methyl)phenyl)acetic acid]: 1000 to 10000 nM. In the case of `Cc1cc2c(-c3ccc4c(c3)c(COc3ccccc3CC(=O)O)nn4C(C)C)cccc2c(N)n1` [Compound 220d, 2-(2-((5-(1-amino-3-methylisoquinolin-5-yl)-1-isopropyl-1H-indazol-3-yl)methoxy)phenyl)acetic acid], the IC50 is 1000 to 10000 nM. As for `Nc1nccc2ccc(-c3ccc4c(c3)[C@@H](Oc3ccccc3CC(=O)O)CC4)cc12` [Compound 221d, (S)-2-(2-((6-(1-aminoisoquinolin-7-yl)-2,3-dihydro-1H-inden-1-yl)oxy)phenyl)acetic acid], the figure is 1000 to 10000 nM; as for `Nc1nccc2c(-c3ccc4c(c3)[C@@H](Oc3ccccc3CC(=O)O)CC4)cccc12` [Compound 222b, (S)-2-(2-((6-(1-aminoisoquinolin-5-yl)-2,3-dihydro-1H-inden-1-yl)oxy)phenyl)acetic acid], 1000 to 10000 nM.

Turning to `Nc1nccc2c(-c3ccc4c(c3)c(COc3ccccc3CC(=O)O)nn4C3CCCC3)cccc12` [Compound 223b, 2-(2-((5-(1-aminoisoquinolin-5-yl)-1-cyclopentyl-1H-indazol-3-yl)methoxy)phenyl)acetic acid], the IC50 was under 1000 nM. As for `N=C(N)c1cccc(-c2ccc3c(c2)c(COc2ccccc2CC(=O)O)nn3C2CCCC2)c1` [Compound 224b, 2-(2-((5-(3-carbamimidoylphenyl)-1-cyclopentyl-1H-indazol-3-yl)methoxy)phenyl)acetic acid], the figure is under 1000 nM. As for `Nc1nccc2c(-c3ccc4c(c3)c(COc3ccccc3CC(=O)O)nn4C3CCCCC3)cccc12` [Compound 225b, 2-(2-((5-(1-aminoisoquinolin-5-yl)-1-cyclohexyl-1H-indazol-3-yl)methoxy)phenyl)acetic acid], the figure is under 1000 nM; as for `N=C(N)c1cccc(-c2ccc3c(c2)c(COc2ccccc2CC(=O)O)nn3C2CCCCC2)c1` [Compound 226b, 2-(2-((5-(3-carbamimidoylphenyl)-1-cyclohexyl-1H-indazol-3-yl)methoxy)phenyl)acetic acid], under 1000 nM. As for `N=C(N)c1cccc(-c2cc(OCc3ccccn3)c3occ(COc4ccccc4CC(=O)O)c3c2)c1` [Compound 227i, 2-(2-((5-(3-carbamimidoylphenyl)-7-(pyridin-2-ylmethoxy)benzofuran-3-yl)methoxy)phenyl)acetic acid], the figure is under 1000 nM.
